The record followed here is US8946223B2, “Substituted hydroxamic acids and uses thereof” (Millennium Pharmaceuticals, Inc., priority 2010, dated 2015).

As a reminder, the pIC50 is −log10 of the IC50, conventionally taken in molar units. Low values mean a high IC50, high ones a low IC50.

pIC50: −log10 of the molar value.

The target of one test is T1, purified human HDAC6 (Homo sapiens, UniProt Q9UBN7).
T1 construct: purchased BPS Bioscience 5006
T1 sequence (Q9UBN7 1-1215): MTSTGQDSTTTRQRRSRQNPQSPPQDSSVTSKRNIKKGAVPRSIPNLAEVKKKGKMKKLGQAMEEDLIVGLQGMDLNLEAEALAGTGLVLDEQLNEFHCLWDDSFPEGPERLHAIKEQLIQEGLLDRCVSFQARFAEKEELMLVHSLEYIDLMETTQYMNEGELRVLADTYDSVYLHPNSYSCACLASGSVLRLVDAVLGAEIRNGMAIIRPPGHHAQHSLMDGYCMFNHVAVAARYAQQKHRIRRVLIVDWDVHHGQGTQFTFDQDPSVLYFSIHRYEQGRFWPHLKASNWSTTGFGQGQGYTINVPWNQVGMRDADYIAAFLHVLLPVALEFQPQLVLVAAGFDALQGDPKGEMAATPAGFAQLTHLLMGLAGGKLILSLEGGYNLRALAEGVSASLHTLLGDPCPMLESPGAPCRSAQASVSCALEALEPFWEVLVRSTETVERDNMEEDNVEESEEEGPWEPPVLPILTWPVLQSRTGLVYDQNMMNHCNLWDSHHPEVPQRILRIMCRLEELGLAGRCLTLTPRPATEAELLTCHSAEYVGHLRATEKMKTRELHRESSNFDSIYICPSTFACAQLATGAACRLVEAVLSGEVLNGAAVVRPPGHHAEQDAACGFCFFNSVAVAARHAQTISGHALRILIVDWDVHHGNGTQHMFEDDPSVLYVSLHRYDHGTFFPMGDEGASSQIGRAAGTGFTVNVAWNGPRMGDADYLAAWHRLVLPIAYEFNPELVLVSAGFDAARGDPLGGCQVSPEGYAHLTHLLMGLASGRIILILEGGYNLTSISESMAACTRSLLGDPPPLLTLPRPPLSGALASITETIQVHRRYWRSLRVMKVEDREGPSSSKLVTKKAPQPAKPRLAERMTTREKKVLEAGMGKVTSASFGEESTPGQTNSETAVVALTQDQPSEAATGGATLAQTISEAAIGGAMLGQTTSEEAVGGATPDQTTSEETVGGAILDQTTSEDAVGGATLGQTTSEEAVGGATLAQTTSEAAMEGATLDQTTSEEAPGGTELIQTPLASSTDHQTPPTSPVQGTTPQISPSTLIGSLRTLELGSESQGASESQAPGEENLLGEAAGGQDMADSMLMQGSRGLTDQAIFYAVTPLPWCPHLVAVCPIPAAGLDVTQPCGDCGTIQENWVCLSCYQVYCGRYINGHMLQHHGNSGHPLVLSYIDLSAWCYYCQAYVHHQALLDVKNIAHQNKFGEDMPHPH
The test is described as follows: HDAC6 enzyme assay. The class given is biochemical. To be noted: bin: less than 100 nM. Here is the method: To measure the inhibition of HDAC6 activity, purified human HDAC6 (BPS Bioscience; Cat. No. 5006) is incubated with substrate Ac-Arg-Gly-Lys(Ac)-AMC peptide (Bachem Biosciences; Cat. No. I-1925) for 1 hour at 30° C. in the presence of test compounds or vehicle DMSO control. The reaction is stopped with the HDAC inhibitor trichostatin A (Sigma; Cat. No. T8552) and the amount of Arg-Gly-Lys-AMC generated is quantitated by digestion with trypsin (Sigma; Cat. No. T1426) and subsequent measurement of the amount of AMC released using a fluorescent plate reader (Pherastar; BMG Technologies) set at Ex 340 nm and Em 460 nm. Concentration response curves are generated by calculating the fluorescence increase in test compound-treated samples relative to DMSO-treated controls, and enzyme inhibition (IC50) values are determined from those curves.
For the compound `O=C(NO)c1cn2c(n1)CN(C(=O)c1ccc(-c3ccccc3)cc1)CC2` [Compound I-2, 7-(biphenyl-4-ylcarbonyl)-N-hydroxy-5,6,7,8-tetrahydroimidazo[1,2-a]pyrazine-2-carboxamide], the pIC50 was more than 7.00.
On the same count and under the same terms, for `O=C(NO)c1cc2n(c1)CCN(C(=O)c1csc3ccccc13)C2` [Compound I-10, 2-(1-benzothien-3-ylcarbonyl)-N-hydroxy-1,2,3,4-tetrahydropyrrolo[1,2-a]pyrazine-7-carboxamide] the value was more than 7.00; for `O=C(NO)c1cc2n(n1)CCN(C(=O)c1ccc(OCc3ccccc3)cc1)C2` [Compound I-17, 5-[4-(benzyloxy)benzoyl]-N-hydroxy-4,5,6,7-tetrahydropyrazolo[1,5-a]pyrazine-2-carboxamide], more than 7.00.
In turn, `Cn1c(C(=O)N2CCn3cc(C(=O)NO)cc3C2)cc2ccccc21` [Compound I-20, N-hydroxy-2-[(1-methyl-1H-indol-2-yl)carbonyl]-1,2,3,4-tetrahydropyrrolo[1,2-a]pyrazine-7-carboxamide] showed a negative-log IC50 (pIC50) of more than 7.00.
Same read-out and setting: for `Cc1ccc2[nH]c(C(=O)N3CCn4cc(C(=O)NO)cc4C3)cc2c1` [Compound I-22, N-hydroxy-2-[(5-methyl-1H-indol-2-yl)carbonyl]-1,2,3,4-tetrahydropyrrolo[1,2-a]pyrazine-7-carboxamide] the value was more than 7.00.
As for `Cc1ccc2[nH]c(C(=O)N3CCn4cc(C(=O)NO)cc4C3)c(C)c2c1` [Compound I-28, 2-[(3,5-dimethyl-1H-indol-2-yl)carbonyl]-N-hydroxy-1,2,3,4-tetrahydropyrrolo[1,2-a]pyrazine-7-carboxamide], the pIC50 was more than 7.00.
`Cn1c(C(=O)N2CCn3nc(C(=O)NO)cc3C2)cc2ccccc21` [Compound I-31, N-hydroxy-5-[(1-methyl-1H-indol-2-yl)carbonyl]-4,5,6,7-tetrahydropyrazolo[1,5-a]pyrazine-2-carboxamide] gave a negative logarithm of the IC50 (pIC50) of more than 7.00.
Same read-out and setting: to `Cn1cccc1C(=O)N1CCn2cc(C(=O)NO)cc2C1` [Compound I-32, N-hydroxy-2-[(1-methyl-1H-pyrrol-2-yl)carbonyl]-1,2,3,4-tetrahydropyrrolo[1,2-a]pyrazine-7-carboxamide] belongs more than 7.00.
Same read-out and setting: for `Cc1cc(C(=O)N2CCn3cc(C(=O)NO)cc3C2)c(C)n1Cc1cccs1` [Compound I-35, 2-{[2,5-dimethyl-1-(2-thienylmethyl)-1H-pyrrol-3-yl]carbonyl}-N-hydroxy-1,2,3,4-tetrahydropyrrolo[1,2-a]pyrazine-7-carboxamide] the value was more than 7.00; for `O=C(NO)c1cc2n(c1)CCN(Cc1ccccc1)C2=O` [Compound I-42, 2-benzyl-N-hydroxy-1-oxo-1,2,3,4-tetrahydropyrrolo[1,2-a]pyrazine-7-carboxamide], more than 7.00.

The same test, now with this note: bins: greater than 1 μM and less than 10 μM; greater than 10 μM.
Compound `O=C(NO)c1cc2n(c1)CCN(C(=O)c1cn3ccccc3n1)C2` [Compound I-3, N-hydroxy-2-(imidazo[1,2-a]pyridin-2-ylcarbonyl)-1,2,3,4-tetrahydropyrrolo[1,2-a]pyrazine-7-carboxamide] had a pIC50 of 5.00 to 6.00.
`Cc1cc(C(=O)N2CCCn3cc(C(=O)NO)cc3C2)c(C)o1` [Compound I-4, 2-(2,5-dimethyl-3-furoyl)-N-hydroxy-2,3,4,5-tetrahydro-1H-pyrrolo[1,2-a][1,4]diazepine-8-carboxamide] showed a negative-log IC50 (pIC50) of less than 5.00.
Compound `Cn1c(C(=O)N2CCCn3cc(C(=O)NO)cc3C2)cc2oc(-c3ccc(C(F)(F)F)cc3)cc21` [Compound I-5, N-hydroxy-2-({4-methyl-2-[4-(trifluoromethyl)phenyl]-4H-furo[3,2-b]pyrrol-5-yl}carbonyl)-2,3,4,5-tetrahydro-1H-pyrrolo[1,2-a][1,4]diazepine-8-carboxamide] gave a pIC50 of 5.00 to 6.00.
For `CC1(C(=O)N2CCn3nc(C(=O)NO)cc3C2)CCCCC1` [Compound I-6, N-hydroxy-5-[(1-methylcyclohexyl)carbonyl]-4,5,6,7-tetrahydropyrazolo[1,5-a]pyrazine-2-carboxamide], the negative logarithm of the IC50 (pIC50) was 5.00 to 6.00.
The same measure, in the same setting: for `Cc1c(C(=O)N2CCCn3cc(C(=O)NO)cc3C2)cnn1-c1ccccc1` [Compound I-7, N-hydroxy-2-[(5-methyl-1-phenyl-1H-pyrazol-4-yl)carbonyl]-2,3,4,5-tetrahydro-1H-pyrrolo[1,2-a][1,4]diazepine-8-carboxamide] the value was 5.00 to 6.00.
`O=C(NO)c1cc2n(n1)CCN(C(=O)C1(C(F)(F)F)CC1)C2` [Compound I-8, N-hydroxy-5-{[1-(trifluoromethyl)cyclopropyl]carbonyl}-4,5,6,7-tetrahydropyrazolo[1,5-a]pyrazine-2-carboxamide] showed a negative logarithm of the IC50 (pIC50) of 5.00 to 6.00.
Same read-out and setting: for `CC(=O)c1c(C)[nH]c(C(=O)N2CCn3cc(C(=O)NO)cc3C2)c1C` [Compound I-15, 2-[(4-acetyl-3,5-dimethyl-1H-pyrrol-2-yl)carbonyl]-N-hydroxy-1,2,3,4-tetrahydropyrrolo[1,2-a]pyrazine-7-carboxamide] the value was 5.00 to 6.00; for `O=C(NO)c1cc2n(n1)CCN(C(=O)C13CC4CC(CC(C4)C1)C3)C2` [Compound I-16, 5-(1-adamantylcarbonyl)-N-hydroxy-4,5,6,7-tetrahydropyrazolo[1,5-a]pyrazine-2-carboxamide], 5.00 to 6.00; for `CC(C)(C)c1ccc(C(=O)N2CCCn3cc(C(=O)NO)cc3C2)cc1` [Compound I-18, 2-(4-tert-butylbenzoyl)-N-hydroxy-2,3,4,5-tetrahydro-1H-pyrrolo[1,2-a][1,4]diazepine-8-carboxamide], 5.00 to 6.00.
Same read-out and setting: for `O=C(NO)c1cc2n(c1)CCCN(C(=O)C1CCCC1)C2` [Compound I-19, 2-(cyclopentylcarbonyl)-N-hydroxy-2,3,4,5-tetrahydro-1H-pyrrolo[1,2-a][1,4]diazepine-8-carboxamide] the value was less than 5.00; for `CC1(C(=O)N2CCn3cc(C(=O)NO)nc3C2)CCCCC1` [Compound I-26, N-hydroxy-7-(1-methylcyclohexanecarbonyl)-5,6,7,8-tetrahydroimidazo[1,2-a]pyrazine-2-carboxamide], 5.00 to 6.00.
`O=C(NO)c1cn2c(n1)CN(C(=O)C13CC4CC(CC(C4)C1)C3)CC2` [Compound I-27, 7-[1-adamantylcarbonyl]-N-hydroxy-5,6,7,8-tetrahydroimidazo[1,2-a]pyrazine-2-carboxamide] had a pIC50 of 5.00 to 6.00.
Still for that read-out and setting: to `O=C(NO)c1cc2n(c1)CCCN(C(=O)C1(c3ccc(Cl)cc3)CC1)C2` [Compound I-34, 2-{[1-(4-chlorophenyl)cyclopropyl]carbonyl}-N-hydroxy-2,3,4,5-tetrahydro-1H-pyrrolo[1,2-a][1,4]diazepine-8-carboxamide] belongs 5.00 to 6.00.
On the same count and under the same terms, for `CC(C)(C)C(=O)N1CCn2nc(C(=O)NO)cc2C1` [Compound I-36, 5-(2,2-dimethylpropanoyl)-N-hydroxy-4,5,6,7-tetrahydropyrazolo[1,5-a]pyrazine-2-carboxamide] the value was less than 5.00; for `CC(C)(C(=O)N1CCn2nc(C(=O)NO)cc2C1)c1ccc(Cl)cc1` [Compound I-37, 5-[2-(4-chlorophenyl)-2-methylpropanoyl]-N-hydroxy-4,5,6,7-tetrahydropyrazolo[1,5-a]pyrazine-2-carboxamide], 5.00 to 6.00; for `O=C(NO)c1cc2n(c1)CCCN(C(=O)C13CC4CC(CC(C4)C1)C3)C2` [Compound I-38, 2-[1-adamantylcarbonyl]-N-hydroxy-2,3,4,5-tetrahydro-1H-pyrrolo[1,2-a][1,4]diazepine-8-carboxamide], 5.00 to 6.00.
`CC(C)(C)C(=O)N1CCn2cc(C(=O)NO)nc2C1` [Compound I-41, 7-(2,2-dimethylpropanoyl)-N-hydroxy-5,6,7,8-tetrahydroimidazo[1,2-a]pyrazine-2-carboxamide]: the pIC50 is 5.00 to 6.00.
